Measurements from PMC5371667, “Targeting Bile Acid Receptors: Discovery of a Potent and Selective Farnesoid X Receptor Agonist as a New Lead in the Pharmacological Approach to Liver Diseases” (Frontiers in Pharmacology, 2017).

What was measured:
[1] = test system: FXR target genes in liver; assay: Hepatic FXR target gene expression in C57BL6 mice (RT-PCR); assay type: in vivo; details: 50 mg/kg per os, p < 0.05 versus control mice
Procedure: HepG2 cells were plated at 1 × 10^6 cells/well in a six well plate. After an overnight incubation, cells were starved and then stimulated for 18 h with compound 2 at 1 μM. Total RNA was isolated from HepG2 cells or liver tissues using the TRIzol reagent according to the manufacturer’s specifications (Invitrogen). One microgram of purified RNA was treated with DNase-I and reverse transcribed with Superscript II (Invitrogen). For Real Time PCR, 10 ng template was dissolved in 25 μL containing 200 nmol/L of each primer and 12.5 μL of 2× SYBR FAST Universal ready mix (Invitrogen). All reactions were performed in triplicate, and the thermal cycling conditions were as follows: 2 min at 95°C, followed by 40 cycles of 95°C for 20 s and 60°C for 30 s in StepOnePlus (Applied Biosystems). The relative mRNA expression was calculated accordingly to the Ct method. Primers were designed using the software PRIMER3^1 using published data obtained from the NCBI database. Forward and reverse primer sequences were the following: human GAPDH, […] and […]; human BSEP, […] and […]; human OSTα, […] and […]; human SHP, […] and […]; mouse NTCP, […] and […]; mouse CYP7A1, […] and […]; mouse FGF21, […] and […]; mouse GAPDH, […] and […]; mouse BSEP, […] and […]; mouse OSTα, […] and […]; mouse SHP, […] and […].
C57BL6 male mice were from Harlan Nossan (Udine, Italy). The colonies were maintained in the animal facility of University of Perugia. Mice were housed under controlled temperatures (22 °C) and photoperiods (12:12-hour light/dark cycle), allowed unrestricted access to standard mouse chow and tap water and allowed to acclimate to these conditions for at least 5 days before inclusion in an experiment. A total number of eight mice were used in this study. The study was conducted in agreement with the Italian law and the protocol was approved by Ethical Committee of University of Perugia and by a National Committee of Ministry of Health (permission N° 42/2014 B). The health and body conditions of the animals were monitored daily by the veterinarian in the animal facility. At the day of sacrifice mice were deeply anesthetized with a mixture of […]/xylazine at a dose of 50 mg/Kg.

GST-fusion FXR-LBD = biological target: T1, GST-fusion FXR-LBD (Homo sapiens, UniProt Q96RI1); assay: Alpha Screen coactivator (SRC-1 peptide) recruitment assay; assay type: biochemical
T1 construct: 10 nM of purified GST-tagged FXR-LBD protein
T1 sequence (Q96RI1 262-486 limits assumed): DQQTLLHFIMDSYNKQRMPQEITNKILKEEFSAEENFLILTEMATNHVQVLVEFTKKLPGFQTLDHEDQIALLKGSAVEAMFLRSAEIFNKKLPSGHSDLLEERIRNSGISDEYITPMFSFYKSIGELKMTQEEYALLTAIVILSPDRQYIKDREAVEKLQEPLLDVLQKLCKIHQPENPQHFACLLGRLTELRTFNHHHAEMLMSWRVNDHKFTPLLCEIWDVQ
Procedure: Activation of FXR was determined by Alpha Screen Technology in a Coactivator Recruitment Assay. Anti-GST-coated acceptor beads were used to capture the GST-fusion FXR-LBD, whereas the biotinylated-SRC-1 peptide was captured by the streptavidin donor beads. Upon illumination at 680 nm, chemical energy is transferred from donor to acceptor beads across the complex streptavidin-donor/[…]-LBD/anti-GST-acceptor and a signal is produced. The assay was performed in white, low-volume, 384-well Optiplates (PerkinElmer) using a final volume of 25 μL containing final concentrations of 10 nM of purified GST-tagged FXR-LBD protein, 30 nM biotinylated SRC-1 peptide, 20 μg/mL anti-GST acceptor beads, and 10 μg/mL of streptavidin donor bead (PerkinElmer). The assay buffer contained 50 mM Tris (pH 7.4), 50 mM KCl and 1 mM DTT. The stimulation times with 1 μL of tested compound (dissolved in 50% DMSO/H2O) were fixed to 30 min at room temperature. The concentration of DMSO in each well was maintained at a final concentration of 2%. After the addition of the detection mix (acceptor and donor beads), the plates were incubated in the dark for 3 h at room temperature and then were read in an Envision microplate analyzer (PerkinElmer).

Question: With CC[C@H]1[C@@H](O)[C@@H]2[C@H](CC[C@]3(C)[C@@H]([C@H](C)CCC(=O)O)CC[C@@H]23)[C@@]2(C)CC[C@H](N=[N+]=[N-])C[C@@H]12 [compound 2, 3β-azido-6α-ethyl-7α-hydroxy-5β-cholan-24-oic acid] as the compound, how does the “relative hepatic mRNA expression of BSEP” value [1] read?
Answer: Its value is “significantly up-regulated”.

Question: What about the “relative hepatic mRNA expression of CYP7A1” value [1] of the same compound?
Answer: Its value is “downregulated”.

Question: What about the “relative hepatic mRNA expression of FGF21” value [1] of the same compound?
Answer: The value was “significantly up-regulated”.

Question: And the “relative hepatic mRNA expression of OSTα” value [1]?
Answer: Its value is “significantly up-regulated”.

Question: And the “relative hepatic mRNA expression of SHP” value [1]?
Answer: Its value is “significantly up-regulated”.

Question: What about the EC50 (GST-fusion FXR-LBD; recruitment of SRC-1 co-activator peptide, Alfa Screen, Table 1) of the same compound?
Answer: The EC50 was 610 ± 90 nM.

Question: And the Efficacy (GST-fusion FXR-LBD; recruitment of SRC-1 co-activator peptide, Alfa Screen, Table 1, 6-ECDCA = 100)?
Answer: Its Efficacy is 90.

Question: And the “efficacy respect to 6-ECDCA” value (GST-fusion FXR-LBD; recruitment of SRC-1 peptide)?
Answer: The value was 90%.
